Results published in patent US20260207615A1, “FLUOROPYRIDOPYRIMIDINE AND FLUOROQUINAZOLINE DERIVATIES AND METHODS OF USE THEREOF” (Frontier Medicines Corporation, priority 2022, published 2026).
pIC50: −log10 of the molar value.

Target: T1, KRAS G12C and cRAF interaction (Homo sapiens, UniProt P01116, C118S/C51S/C80L/G12C)
T1 construct: truncated version comprising amino acids 1-169
Test: Inhibition of KRAS G12C and cRAF binding (AlphaScreen)
Type: biochemical
Conditions: KRAS G12C (Cys-light, aa 1-169) preloaded with GMPPNP, cRaf RBD (aa 50-131), 2 hours incubation
Outline: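 Biotin-AviTag KRAS G12C (Cys-light C51S/C80L/C118S, aa 1-169, GMPPNP-loaded; 0.5 nM final)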

T1 sequence (P01116 1-169 isoform P01116-2 G12C/C51S/C80L/C118S): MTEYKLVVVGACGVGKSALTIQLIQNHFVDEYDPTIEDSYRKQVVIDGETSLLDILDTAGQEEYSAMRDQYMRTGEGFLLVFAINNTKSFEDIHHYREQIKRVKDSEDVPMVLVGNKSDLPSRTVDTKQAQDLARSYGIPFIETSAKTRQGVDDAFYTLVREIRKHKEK

| Compound | pIC50 |
| --- | --- |
| CN(C)C/C=C/C(=O)N1CCN(c2nc(OC[C@@]34CCCN3C[C@H](F)C4)nc3c(F)c(-c4cc(O)cc(Cl)c4C4CC4)ncc23)CC12COC2 [Example 55, (E)-1-(8-(7-(3-chloro-2-cyclopropyl-5-hydroxyphenyl)-8-fluoro-2-(((2R,7aS)-2-fluorotetrahydro-1H-pyrrolizin-7a(5H)-yl)methoxy)pyrido[4,3-d]pyrimidin-4-yl)-2-oxa-5,8-diazaspiro[3.5]nonan-5-yl)-4-(dimethylamino)but-2-en-1-one] | > 8.00 |
| C=CC(=O)N1CCN(c2nc(OC[C@@]34CCCN3C[C@H](F)C4)nc3c(F)c(-c4ccc(F)c5sc(N)nc45)c(Cl)cc23)CC12CCOC2 (some centres unmarked) [Example 86] | 6.30 to 7.00 |
| C=CC(=O)N1CC(C)N(c2nc(OC[C@@]34CCCN3C[C@H](F)C4)nc3c(F)c(-c4cccc5cccc(Cl)c45)ncc23)CC12COC2 (some centres unmarked) [Example 65] | 7.00 to 8.00 |
| C=CC(=O)N1CCN(c2nc(OC[C@@]34CCCN3C[C@H](F)C4)nc3c(F)c(-c4ccc(F)c5sc(N)nc45)c(C(F)(F)F)cc23)CC12CCOC2 (some centres unmarked) [Example 90] | 7.00 to 8.00 |
| Cc1nccc(/C=C/C(=O)N2CCN(c3nc(OC[C@@]45CCCN4C[C@H](F)C5)nc4c(F)c(-c5cc(O)cc(Cl)c5C5CC5)ncc34)CC23COC3)n1 [Example 41, (E)-1-(8-(7-(3-chloro-2-cyclopropyl-5-hydroxyphenyl)-8-fluoro-2-(((2R,7aS)-2-fluorotetrahydro-1H-pyrrolizin-7a(5H)-yl)methoxy)pyrido[4,3-d]pyrimidin-4-yl)-2-oxa-5,8-diazaspiro[3.5]nonan-5-yl)-3-(2-methylpyrimidin-4-yl) prop-2-en-1-one] | > 8.00 |
| C=CC(=O)N1CCN(c2nc(OC[C@@]34CCCN3C[C@H](F)C4)nc3c(F)c(-c4ccc(F)c5sc(N)nc45)c(Cl)cc23)C[C@]12CCOC2 [Example 87] | ≤ 6.30 |
| C=CC(=O)N1CCN(c2nc(OC[C@@]34CCCN3C[C@H](F)C4)nc3c(F)c(-c4cccc(Cl)c4C4CC4)ncc23)CC12COC2 [Example 38, 1-(8-(7-(3-chloro-2-cyclopropylphenyl)-8-fluoro-2-(((2R,7aS)-2-fluorotetrahydro-1H-pyrrolizin-7a(5H)-yl)methoxy)pyrido[4,3-d]pyrimidin-4-yl)-2-oxa-5,8-diazaspiro[3.5]nonan-5-yl) prop-2-en-1-one] | 7.00 to 8.00 |
| O=C(/C=C/CN1CC2CCC(C1)O2)N1CCN(c2nc(OC[C@@]34CCCN3C[C@H](F)C4)nc3c(F)c(-c4cccc5ccc(F)c(F)c45)ncc23)CC12COC2 [Example 22, (E)-4-(8-oxa-3-azabicyclo[3.2.1]octan-3-yl)-1-(8-(7-(7,8-difluoronaphthalen-1-yl)-8-fluoro-2-(((2R,7aS)-2-fluorotetrahydro-1H-pyrrolizin-7a(5H)-yl)methoxy)pyrido[4,3-d]pyrimidin-4-yl)-2-oxa-5,8-diazaspiro[3.5]nonan-5-yl) but-2-en-1-one] | > 8.00 |
